Molecules are shown by their SMILES.

One experiment has as its system RPMI-8226. Briefly: cells. Format: functional, cell-based. As to conditions: Homo sapiens, RPMI-8226, 72 h.
In experiment [1] the target is T1, Histone deacetylase 1 (Homo sapiens, UniProt Q13547). Briefly: Inhibition of HDAC1 (unknown origin) expressed in baculovirus infected in Sf9 cells using RHKKAc as substrate preincubated for 5 to 10 mins followed by substrate addition measured after 2 hrs by fluorescence based assay.
The target of experiment [2] is T2, Protein deacetylase HDAC6 (Homo sapiens, UniProt Q9UBN7).
T2 sequence (Q9UBN7 whole entry): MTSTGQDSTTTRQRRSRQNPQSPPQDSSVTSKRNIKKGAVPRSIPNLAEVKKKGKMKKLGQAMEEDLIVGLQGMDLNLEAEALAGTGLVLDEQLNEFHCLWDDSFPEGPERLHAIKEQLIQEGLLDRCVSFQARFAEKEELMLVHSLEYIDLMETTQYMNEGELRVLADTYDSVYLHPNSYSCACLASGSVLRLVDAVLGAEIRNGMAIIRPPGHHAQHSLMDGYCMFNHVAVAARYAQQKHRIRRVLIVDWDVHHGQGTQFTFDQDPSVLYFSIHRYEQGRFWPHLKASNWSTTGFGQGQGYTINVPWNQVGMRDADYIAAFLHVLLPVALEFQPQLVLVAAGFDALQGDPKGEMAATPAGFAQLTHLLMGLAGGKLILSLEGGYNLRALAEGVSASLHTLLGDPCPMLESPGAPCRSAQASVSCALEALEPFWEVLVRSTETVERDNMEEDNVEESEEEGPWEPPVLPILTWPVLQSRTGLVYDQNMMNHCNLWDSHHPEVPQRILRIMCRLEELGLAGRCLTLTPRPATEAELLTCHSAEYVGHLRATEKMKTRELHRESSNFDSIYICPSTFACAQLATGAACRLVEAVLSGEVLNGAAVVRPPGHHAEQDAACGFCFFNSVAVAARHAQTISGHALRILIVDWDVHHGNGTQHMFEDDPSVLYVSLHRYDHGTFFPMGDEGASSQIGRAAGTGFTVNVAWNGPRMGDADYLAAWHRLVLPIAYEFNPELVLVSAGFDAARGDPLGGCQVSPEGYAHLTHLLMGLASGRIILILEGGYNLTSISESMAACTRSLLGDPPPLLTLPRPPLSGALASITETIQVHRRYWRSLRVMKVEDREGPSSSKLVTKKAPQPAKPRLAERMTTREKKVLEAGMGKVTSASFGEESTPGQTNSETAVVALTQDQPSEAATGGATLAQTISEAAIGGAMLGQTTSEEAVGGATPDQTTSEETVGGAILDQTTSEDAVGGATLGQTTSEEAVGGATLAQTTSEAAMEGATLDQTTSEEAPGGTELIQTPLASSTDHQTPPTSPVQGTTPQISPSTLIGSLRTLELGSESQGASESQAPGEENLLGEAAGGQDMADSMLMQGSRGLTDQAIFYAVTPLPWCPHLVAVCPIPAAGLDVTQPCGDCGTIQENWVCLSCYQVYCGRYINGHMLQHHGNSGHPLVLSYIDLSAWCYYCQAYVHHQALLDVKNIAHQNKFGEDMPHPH
The experiment in a line: Inhibition of HDAC6 (unknown origin) expressed in baculovirus infected in Sf9 cells using RHKKAc as substrate preincubated for 5 to 10 mins followed by substrate addition measured after 2 hrs by fluorescence based assay.

Experiment [3] concerns the target T1, Histone deacetylase 1. The experiment in a line: Inhibition of HDAC1 (unknown origin) expressed in baculovirus infected in Sf9 cells using RHKKAc as substrate at 500 nM preincubated for 5 to 10 mins followed by substrate addition measured after 2 hrs by fluorescence based assay relative to control. As to conditions: time 5-130 min.
The target in experiment [4] is T3, Protein deacetylase HDAC6 (Homo sapiens) (UniProt Q9UBN7).
T3 sequence (whole entry): T2 sequence (Q9UBN7 whole entry)
The experiment in a line: Inhibition of HDAC6 (unknown origin) expressed in baculovirus infected in Sf9 cells using RHKKAc as substrate at 500 nM preincubated for 5 to 10 mins followed by substrate addition measured after 2 hrs by fluorescence based assay relative to control. The note with it: time 5-130 min.

T1 sequence (Q13547 whole entry): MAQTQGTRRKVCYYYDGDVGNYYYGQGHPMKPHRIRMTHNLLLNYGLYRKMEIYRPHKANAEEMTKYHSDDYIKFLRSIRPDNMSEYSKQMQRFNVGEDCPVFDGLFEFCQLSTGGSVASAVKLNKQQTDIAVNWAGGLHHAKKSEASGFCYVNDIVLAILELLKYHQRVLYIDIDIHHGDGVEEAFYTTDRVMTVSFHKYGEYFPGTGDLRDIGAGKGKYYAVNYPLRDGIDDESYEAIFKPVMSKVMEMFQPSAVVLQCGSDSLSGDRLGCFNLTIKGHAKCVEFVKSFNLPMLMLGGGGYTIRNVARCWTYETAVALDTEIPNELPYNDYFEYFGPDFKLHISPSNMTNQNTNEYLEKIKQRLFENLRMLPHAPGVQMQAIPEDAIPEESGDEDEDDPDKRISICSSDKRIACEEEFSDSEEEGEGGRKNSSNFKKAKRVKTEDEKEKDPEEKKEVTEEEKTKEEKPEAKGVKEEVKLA

For the compound `O=C(NO)c1ccc(CNC(=O)[C@H]2Cc3c([nH]c4ccccc34)[C@H](C3CCCC3)N2)cc1`, the IC50 is 680 nM in the experiment on RPMI-8226, 40.5 nM at Histone deacetylase 1 [1] and 2.53 nM in experiment [2].

In turn, `COc1ccc(CN2[C@H](C(=O)NCc3ccc(C(=O)NO)cc3)Cc3c([nH]c4ccccc34)[C@H]2C2CC2)cc1` had an inhibition against Histone deacetylase 1 [3] of 43.2%. Half-maximal inhibition against Histone deacetylase 1 [1] (IC50) was put at 1680 nM.

Take `COc1ccc([C@H]2N[C@H](C(=O)NCc3ccc(C(=O)NO)cc3)Cc3c2[nH]c2ccccc32)cc1`: the inhibition against Histone deacetylase 1 [3] turned out to be 71.4%; in experiment [4], 98.7%. Also, the IC50 on Histone deacetylase 1 [1] was determined as 494 nM; in experiment [2], 3.75 nM.

In the case of `COc1ccc(C[C@H]2N[C@H](C(=O)NCc3ccc(C(=O)NO)cc3)Cc3c2[nH]c2ccccc32)cc1`, the inhibition was found to be 38.1% on Histone deacetylase 1 [3] and 81.5% in experiment [4].

As to `COc1ccc(CN2Cc3[nH]c4ccccc4c3C[C@@H]2C(=O)NCc2ccc(C(=O)NO)cc2)cc1`, the results for the inhibition (at Histone deacetylase 1 [3]; in experiment [4]) were 32% and 83.4%, respectively.

Consider `O=C(NO)c1ccc(CNC(=O)[C@H]2Cc3c([nH]c4ccccc34)[C@H](C3CC3)N2Cc2ccc(Cl)cc2)cc1`, for which the results for the IC50 (at Histone deacetylase 1 [1]; in experiment [2]) were 184 nM and 10.5 nM, respectively.

With `O=C(NO)c1ccc(CNC(=O)[C@H]2Cc3c([nH]c4ccccc34)[C@H](C3CC3)N2)cc1`, the half-inhibitory concentration (IC50) amounted to 830 nM in the experiment on RPMI-8226, 38 nM against Histone deacetylase 1 [1] and 4.36 nM in experiment [2].

Take `O=C(NO)c1ccc(CNC(=O)[C@H]2Cc3c([nH]c4ccccc34)[C@H](c3ccccc3)N2)cc1`: the IC50 in the experiment on RPMI-8226 was determined as 580 nM; against Histone deacetylase 1 [1] it was 42.3 nM; in experiment [2], 2.1 nM.

With `COc1ccc(CN2[C@@H](C(=O)NCc3ccc(C(=O)NO)cc3)Cc3c([nH]c4ccccc34)[C@@H]2C)cc1`, the IC50 at Histone deacetylase 1 [1] stood at 125 nM; in experiment [2], 8.84 nM.

As for `COc1ccc([C@H]2N[C@@H](C(=O)NCc3ccc(C(=O)NO)cc3)Cc3c2[nH]c2ccccc32)cc1`, the inhibition at Histone deacetylase 1 [3] turned out to be 35.8%; in experiment [4] it was 82.3%.

In the case of `COc1ccc([C@@H]2N[C@@H](C(=O)NCc3ccc(C(=O)NO)cc3)Cc3c2[nH]c2ccccc32)cc1OC`, the IC50 is 900 nM in the experiment with RPMI-8226 and 78 nM against Histone deacetylase 1 [1].

Regarding `COc1ccc([C@@H]2N[C@@H](C(=O)NCc3ccc(C(=O)NO)cc3)Cc3c2[nH]c2ccccc32)cc1`, the inhibition at Histone deacetylase 1 [3] is 90.6%; in experiment [4] it was 96.4%. The 50% inhibitory concentration (IC50) on Histone deacetylase 1 [1] came out at 51.5 nM; in experiment [2], 2.34 nM.

As for `O=C(NO)c1ccc(CNC(=O)[C@H]2Cc3c([nH]c4ccccc34)[C@H](c3ccc(Cl)cc3)N2CC2CC2)cc1`, the midpoint of inhibition on Histone deacetylase 1 [1], the IC50, lay at 106 nM.

As for `COc1ccc([C@@H]2N[C@H](C(=O)NCc3ccc(C(=O)NO)cc3)Cc3c2[nH]c2ccccc32)cc1`, the inhibition at Histone deacetylase 1 [3] amounted to 30.6%; in experiment [4], 87.1%.
